Laboratory results from US10501482B2, “Compounds for treating spinal muscular atrophy” (Hoffmann-La Roche Inc., priority 2013, dated 2019).
Structures can show the parent of a compound that is named as a salt.

Assays:
[1] = test system: full length SMN2 minigene mRNA (FL SMN2mini) in HEK293H cells stably transfected with the SMN2-A minigene construct; test: SMN2 minigene mRNA splicing RT-qPCR assay in cultured cells; format: cell-based; settings: Homo sapiens, HEK293-H, 24 hours, 7-point concentration curve, concentration giving 1.5-fold FL SMN2mini mRNA vs vehicle, read-out: EC1.5x minigene (EC1.5x concentration for production of full length SMN2 minigene mRNA)
Procedure: The reverse transcription-quantitative PCR-based (RT-qPCR) assay is used to quantify the level of the full length SMN2 minigene (referred to herein by the term “FL SMN2mini”) mRNA containing SMN2 exon 7 in a HEK293H cell line stably transfected with said minigene and treated with a test compound.
The SMN2-A minigene construct was prepared as described in International Patent Application WO2009/151546A1 page 145 paragraph [00400] to page 147 paragraph [00412](incl. FIG. 1 and FIG. 3 therein).
HEK293H cells stably transfected with the SMN2-A minigene construct (10,000 cells/well) are seeded in 200 μL of cell culture medium (DMEM plus 10% FBS, with 200 μg/mL hygromycin) in 96-well flat-bottom plates and the plate is immediately swirled to ensure proper dispersal of cells and the formation of an even monolayer of cells. Cells are allowed to attach for 6 hours. […] A solution of test compound (1 μL, 200× in DMSO) is added to each cell-containing well and the plate is incubated for 24 hours in a cell culture incubator (37° C., 5% CO2, 100% relative humidity). 2 replicates are prepared for each test compound concentration. The cells are then lysed in the Cells-To-Ct lysis buffer and the lysate is stored at −80° C.
Full length SMN2-A minigene and GAPDH mRNA are quantified using the primers and probes referenced in Table 1. Primer SMN Forward A (SEQ ID NO.1) hybridizes to a nucleotide sequence in exon 7 (nucleotide 22 to nucleotide 40), primer SMN Reverse A (SEQ ID NO.2) hybridizes to a nucleotide sequence in the coding sequence of Firefly luciferase, SMN Probe A (SEQ ID NO.3) hybridizes to a nucleotide sequence in exon 7 (nucleotide 50 to nucleotide 54) and exon 8 (nucleotide 1 to nucleotide 21). The combination of these three oligonucleotides detects only SMN1 or SMN2 minigenes (RT-qPCR) and will not detect endogenous SMN1 or SMN2 genes.
The SMN forward and reverse primers are used at final concentrations of 0.4 μM. The SMN probe is used at a final concentration of 0.15 μM. The GAPDH primers are used at final concentrations of 0.2 μM and the probe at 0.15 μM.
The SMN2-minigene GAPDH mix (15 μL total volume) is prepared by combining 7.5 μL of 2×RT-PCR buffer, 0.4 μL of 25×RT-PCR enzyme mix, 0.75 μL of 20×GAPDH primer-probe mix, 4.0075 μL of water, 2 μL of 10-fold diluted cell lysate, 0.06 μL of 100 μM SMN forward primer, 0.06 μL of 100 μM SMN reverse primer, and 0.225 μL of 100 μM SMN probe.
PCR is carried out at the following temperatures for the indicated time: Step 1: 48° C. (15 min); Step 2: 95° C. (10 min); Step 3: 95° C. (15 sec); Step 4: 60° C. (1 min); then repeat Steps 3 and 4 for a total of 40 cycles.
Each reaction mixture contains both SMN2-A minigene and GAPDH primers/probe sets (multiplex design), allowing simultaneous measurement of the levels of two transcripts.
The increase in the abundance of the FL SMN2mini mRNA relative to that in cells treated with vehicle control is determined from real-time PCR data using a modified ΔΔCt method (as described in Livak and Schmittgen, Methods, 2001, 25:402-8). The amplification efficiency E is calculated from the slope of the amplification curve for FL SMN2mini and GAPDH individually. The abundance of FL SMN2mini and GAPDH mRNA are then calculated as (1+E)^−Ct, where Ct is the threshold value for each amplicon. The abundance of FL SMN2mini mRNA is normalized to GAPDH mRNA abundance. The normalized FL SMN2mini mRNA abundance from test compound-treated samples is then divided by normalized FL SMN2mini mRNA abundance from vehicle-treated cells to determine the level of FL SMN2mini mRNA relative to vehicle control.
Table 2 provides EC1.5x concentrations for production of full length SMN2 minigene mRNA that was obtained from the 7-point concentration data generated according to the above procedure for particular compounds of the present invention.

SMN protein = SMN protein assay (HTRF) in cultured SMA patient fibroblast cells; format: cell-based; settings: SMA Type 1 human fibroblasts GM03813, 48 hours; for EC1.5x SMN protein (EC1.5x concentration for SMN protein expression): 7-point concentration curve, concentration giving 1.5 times SMN protein vs vehicle; for max. fold increase (maximum fold increase of SMN protein): 7-point concentration data, fold vs vehicle control
How it was run: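 SMA patient fibroblasts seeded at 5,000 cells/well, treated 48 h at 37 °C in triplicate per concentration (7-point series). Lysed in RIPA with protease inhibitors; SMN read by HTRF (anti-SMN d2/kryptate, overnight RT), 665/620 nm ratio. ΔF vs blank, expressed as fold over vehicle; EC1.5x and maximum fold increase derived.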

| Compound | EC (1.5-fold) [1] | EC1.5x SMN protein (EC1.5x concentration for SMN protein expression) (SMN protein) | max. fold increase (maximum fold increase of SMN protein) (SMN protein) |
| --- | --- | --- | --- |
| Cc1cn2cc(NC(=O)c3ccc(N4CCNC(C)C4)nc3)cc(Cl)c2n1 (racemic) [Example 55, rac-N-(8-chloro-2-methylimidazo[1,2-a]pyridin-6-yl)-6-(3-methylpiperazin-1-yl)nicotinamide dihydrochloride] | 0.141 µM | 0.7112 µM | 1.8752 |
| Cc1cn2cc(NC(=O)c3ncc(N4CCNC(C)C4)cc3F)cc(Cl)c2n1 (racemic) [Example 56, rac-N-(8-chloro-2-methylimidazo[1,2-a]pyridin-6-yl)-3-fluoro-5-(3-methyl-piperazin-1-yl)-picolinamide dihydrochloride] | 0.017 µM | 0.07 µM | 1.7299 |
| Cc1cn2cc(NC(=O)c3c(F)cc(N4CCNC(C)C4)cc3F)cc(Cl)c2n1 (racemic) [Example 57, rac-N-(8-chloro-2-methylimidazo[1,2-a]pyridin-6-yl)-2,6-difluoro-4-(3-methylpiperazin-1-yl)benzamide trihydrochloride] | 0.0262 µM | 1.7363 µM | 1.578 |
| COc1nc(N2CCNC(C)C2)ccc1C(=O)Nc1cc(F)c2nc(C)cn2c1 (racemic) [Example 74, rac-N-(8-fluoro-2-methylimidazo[1,2-a]pyridin-6-yl)-2-methoxy-6-(3-methylpiperazin-1-yl)nicotinamide] | 0.0161 µM | 0.1524 µM | 1.709 |
| COc1cc(N2CCNC(C)C2)ncc1C(=O)Nc1cc(F)c2nc(C)cn2c1 (racemic) [Example 76, rac-N-(8-fluoro-2-methylimidazo[1,2-a]pyridin-6-yl)-4-methoxy-6-(3-methylpiperazin-1-yl)nicotinamide] | 0.0187 µM | 0.1629 µM | 1.7274 |
| Cc1cn2cc(NC(=O)c3ccc(N4CCN(C)C(C)C4)nc3)ccc2n1 (racemic) [Example 82, rac-6-(3,4-dimethylpiperazin-1-yl)-N-(2-methylimidazo[1,2-a]pyridin-6-yl)nicotinamide] | 0.371 µM | 0.7698 µM | 1.7306 |
| Cc1cn2cc(NC(=O)c3ccc(N4CCNCC4)cc3)nc2c(C)n1 [Example 1, N-(6,8-dimethylimidazo[1,2-a]pyrazin-2-yl)-4-(piperazin-1-yl)benzamide] | 0.0316 µM | 0.7747 µM | 1.6736 |
| Cc1cn2cc(NC(=O)c3ccc(N4CCN[C@@H](C)C4)cc3)nc2c(C)n1 [Example 3, N-(6,8-Dimethyl-imidazo[1,2-a]-pyrazin-2-yl)-4-((S)-3-methyl-piperazin-1-yl)-benzamide] | 0.552 µM | 1.47 µM | 1.7558 |
| Cc1cn2cc(NC(=O)c3ccc(N4CCN(C)CC4)cc3F)nc2c(C)n1 [Example 4, N-(6,8-dimethyl-imidazo[1,2-a]-pyrazin-2-yl)-2-fluoro-4-(4-methylpiperazin-1-yl)benzamide] | 0.232 µM | 0.5614 µM | 1.769 |
| Cc1cn2cc(NC(=O)c3ccc(N4CCN(C)CC4)nc3)nc2c(C)n1 [Example 6, N-(6,8-dimethyl-imidazo[1,2-a]-pyrazin-2-yl)-6-(4-methyl-piperazin-1-yl)nicotinarnide] | 0.233 µM | 0.5305 µM | 1.8047 |
| CCN1CCN(c2ccc(C(=O)Nc3cn4cc(C)nc(C)c4n3)cn2)CC1 [Example 8, N-(6,8-dimethyl-imidazo[1,2-a]-pyrazin-2-yl)-6-(4-ethyl-piperazin-1-yl)nicotinamide] | 0.201 µM | 0.5175 µM | 1.7677 |
| Cc1cn2cc(NC(=O)c3ccc(N4CCN(C)CC4)cn3)nc2c(C)n1 [Example 9, N-(6,8-dimethyl-imidazo[1,2-a]-pyrazin-2-yl)-5-(4-methyl-piperazin-1-yl)picolinamide] | 0.794 µM | 1.527 µM | 1.6085 |
| Cc1cn2cc(NC(=O)c3ccc(N4CCNCC4)cn3)nc2c(C)n1 [Example 11, N-(6,8-dimethyl-imidazo[1,2-a]-pyrazin-2-yl)-5-(piperazin-1-yl)picolinamide] | 0.297 µM | 0.321 µM | 1.7143 |
| Cc1cn2cc(NC(=O)c3ccc(N4CCNC(C)(C)C4)nc3)ccc2n1 [Example 13, 6-(3,3-dimethyl-piperazin-1-yl)-N-(2-methyl-imidazo[1,2-a]-pyridin-6-yl)-nicotinamide] | 1.03 µM | 1.7564 µM | 1.624 |
| Cc1cn2cc(NC(=O)c3ccc(N4CCNCC4)nc3)ccc2n1 [Example 14, N-(2-methyl-imidazo[1,2-a]-pyridin-6-yl)-6-(piperazin-1-yl)nicotinamide] | 0.231 µM | 0.7944 µM | 1.5912 |
| Cc1cn2cc(NC(=O)c3ccc(N4C[C@H]5CNC[C@H]5C4)nc3)ccc2n1 [Example 15, 6-hexahydro-pyrrolo[3,4-c]-pyrrol-2(1H)-yl)-N-(2-methyl-imidazo[1,2-a]-pyridin-6-yl)-nicotinamide hydrochloride] | 0.254 µM | 0.281 µM | 1.6859 |
